Among the data in US10919911B2, “Tricyclic ASK1 inhibitors” (Terns, Inc., priority 2018, dated 2021) are IC50 values, retold here.

Chain of ASK1 kinase (Q99683 whole entry): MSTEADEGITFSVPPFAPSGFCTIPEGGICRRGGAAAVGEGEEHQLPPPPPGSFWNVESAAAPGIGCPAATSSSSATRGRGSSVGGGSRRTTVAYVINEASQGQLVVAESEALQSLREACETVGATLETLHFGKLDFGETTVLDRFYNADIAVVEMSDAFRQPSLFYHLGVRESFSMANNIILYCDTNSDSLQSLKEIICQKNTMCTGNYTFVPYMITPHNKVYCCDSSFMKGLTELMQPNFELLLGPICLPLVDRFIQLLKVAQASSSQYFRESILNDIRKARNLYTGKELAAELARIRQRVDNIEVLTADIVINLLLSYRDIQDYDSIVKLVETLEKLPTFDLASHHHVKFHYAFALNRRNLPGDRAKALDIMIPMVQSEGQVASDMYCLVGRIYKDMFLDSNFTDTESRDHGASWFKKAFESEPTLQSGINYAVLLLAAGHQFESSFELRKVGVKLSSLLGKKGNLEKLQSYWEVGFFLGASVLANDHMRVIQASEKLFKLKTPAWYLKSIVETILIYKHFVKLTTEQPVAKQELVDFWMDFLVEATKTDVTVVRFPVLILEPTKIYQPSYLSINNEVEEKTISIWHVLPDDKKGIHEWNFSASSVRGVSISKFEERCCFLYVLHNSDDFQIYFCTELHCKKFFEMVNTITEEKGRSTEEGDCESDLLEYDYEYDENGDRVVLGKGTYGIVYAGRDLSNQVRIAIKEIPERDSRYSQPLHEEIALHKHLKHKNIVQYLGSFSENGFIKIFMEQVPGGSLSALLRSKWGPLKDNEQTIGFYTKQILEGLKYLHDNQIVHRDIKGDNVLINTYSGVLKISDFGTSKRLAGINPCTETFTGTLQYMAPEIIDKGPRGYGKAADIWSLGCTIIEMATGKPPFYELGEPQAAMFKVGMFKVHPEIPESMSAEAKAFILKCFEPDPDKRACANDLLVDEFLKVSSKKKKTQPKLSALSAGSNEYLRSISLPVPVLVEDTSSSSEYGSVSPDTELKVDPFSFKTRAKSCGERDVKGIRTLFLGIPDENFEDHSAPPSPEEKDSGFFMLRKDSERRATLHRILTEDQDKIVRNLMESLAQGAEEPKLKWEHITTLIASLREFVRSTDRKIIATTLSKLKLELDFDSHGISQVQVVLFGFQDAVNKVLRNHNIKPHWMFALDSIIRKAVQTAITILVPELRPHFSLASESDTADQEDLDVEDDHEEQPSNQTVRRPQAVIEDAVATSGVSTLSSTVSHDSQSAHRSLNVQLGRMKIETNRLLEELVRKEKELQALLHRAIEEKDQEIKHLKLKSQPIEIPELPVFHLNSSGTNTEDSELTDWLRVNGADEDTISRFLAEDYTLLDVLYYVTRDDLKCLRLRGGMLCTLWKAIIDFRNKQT

For the assay, the target named is ASK1 kinase (Homo sapiens (Human), UniProt Q99683). As to the kind of experiment: RBC Kinase Assay (33P-ATP radiometric, myelin basic protein substrate). It is filed as biochemical. Particulars: 20 ng ASK1 kinase, MBP substrate, 120 min at room temperature, 1% DMSO. As to the method:
Example B1. RBC Kinase Assay Protocol
Base Reaction buffer: 20 mM Hepes (pH 7.5), 10 mM MgCl2, 1 mM EGTA, 0.02% Brij35, 0.02 mg/ml BSA, 0.1 mM Na3VO4, 2 mM DTT, and 1% DMSO were used for the assay.
Myelin base protein (MPB) was prepared in freshly prepared Base Reaction Buffer. 20 ng of ASK1 kinase was delivered into the substrate solution and gently mixed. Compounds in DMSO were delivered into the kinase reaction mixture (final DMSO concentration 1%). Commercially available 33P-ATP was delivered into the reaction mixture to initiate the reaction. The kinase reaction was incubated for 120 min. at room temperature. Reactions were spotted onto P81 ion exchange paper (Whatman #3698-915). Filters were washed extensively in 0.75% Phosphoric acid. Radioactivity on filters was read, and IC50 values were determined.
Broadly, the IC50 is the concentration that gives 50% inhibition. As to `Cc1cc(F)c(C(=O)Nc2cccc3c2OC[C@@H](CF)n2nnnc2-3)cc1-n1cnc(C2CC2)c1` [Example 30, (S)-5-(4-cyclopropyl-1H-imidazol-1-yl)-2-fluoro-N-(5-(fluoromethyl)-5,6-dihydrobenzo[f]tetrazolo[1,5-d][1,4]oxazepin-8-yl)-4-methylbenzamide], the IC50 was found to be 4.5 nM.

Turning to `O=C(Nc1cccc2c1OCCn1nnnc1-2)c1cc(-n2cnc(C3CC3)c2)c(N2CC[C@@H](O)C2)cn1` [Example 57, (R)-4-(4-cyclopropyl-1H-imidazol-1-yl)-N-(5,6-dihydrobenzo[f]tetrazolo[1,5-d][1,4]oxazepin-8-yl)-5-(3-hydroxypyrrolidin-1-yl)picolinamide], half-maximal inhibition (IC50) was put at 4.7 nM. On to `O=C(Nc1cccc2c1OC[C@H](CO)n1nnnc1-2)c1cc(-n2cnc(C3CC3)c2)ccn1` [Example 24, (S)-4-(4-cyclopropyl-1H-imidazol-1-yl)-N-(5-(hydroxymethyl)-5,6-dihydrobenzo[f]tetrazolo[1,5-d][1,4]oxazepin-8-yl)picolinamide], for which the concentration for half-maximal inhibition (IC50) turned out to be 6.2 nM. The same measure for `O=C(Nc1cccc2c1OCCn1nnnc1-2)c1cc(-n2cnc(C3CC3)c2)c(N2CCC2)cn1` [Example 58, 5-(azetidin-1-yl)-4-(4-cyclopropyl-1H-imidazol-1-yl)-N-(5,6-dihydrobenzo[f]tetrazolo[1,5-d][1,4]oxazepin-8-yl)picolinamide]: 3.2 nM; for `C[C@@H]1COc2c(NC(=O)c3cc(-n4cnc(C5CC5)c4)ccn3)cccc2-c2nnnn21` [Example 4, (R)-4-(4-cyclopropyl-1H-imidazol-1-yl)-N-(5-methyl-5,6-dihydrobenzo[f]tetrazolo[1,5-d][1,4]oxazepin-8-yl)picolinamide]: 5.7 nM. The result for `Cc1cc(F)c(C(=O)Nc2cccc3c2OC[C@@H]([C@H](C)O)n2nnnc2-3)cc1-n1cnc(C2CC2)c1` [Example 48, 5-(4-cyclopropyl-1H-imidazol-1-yl)-2-fluoro-N—((S)-5-((S)-1-hydroxyethyl)-5,6-dihydrobenzo[f]tetrazolo[1,5-d][1,4]oxazepin-8-yl)-4-methylbenzamide] reads 5.1 nM; that for `C[C@H]1CN(c2cnc(C(=O)Nc3cccc4c3OCCn3nnnc3-4)cc2-n2cnc(C3CC3)c2)CCO1` [Example 66, (S)-4-(4-cyclopropyl-1H-imidazol-1-yl)-N-(5,6-dihydrobenzo[f]tetrazolo[1,5-d][1,4]oxazepin-8-yl)-5-(2-methylmorpholino)picolinamide], 6 nM.

`O=C(Nc1cccc2c1OCCn1cnnc1-2)c1cc(-n2cnc(C3CC3)c2)c(N2CCOCC2)cn1` [Example 44, 4-(4-cyclopropyl-1H-imidazol-1-yl)-N-(5,6-dihydrobenzo[f][1,2,4]triazolo[4,3-d][1,4]oxazepin-8-yl)-5-morpholinopicolinamide]: the IC50 is 15.6 nM.

As for `C[C@H]1COc2c(NC(=O)c3cc(-n4cnc(C5CC5)c4)ccn3)cccc2-c2nnnn21` [Example 6, (S)-4-(4-cyclopropyl-1H-imidazol-1-yl)-N-(5-methyl-5,6-dihydrobenzo[f]tetrazolo[1,5-d][1,4]oxazepin-8-yl)picolinamide], it took 7.7 nM to reach half-maximal inhibition (IC50).

The molecule `Cc1cc(F)c(C(=O)Nc2cccc3c2OC[C@H](CF)n2nnnc2-3)cc1-n1cnc(C2CC2)c1` [Example 26, (R)-5-(4-cyclopropyl-1H-imidazol-1-yl)-2-fluoro-N-(5-(fluoromethyl)-5,6-dihydrobenzo[f]tetrazolo[1,5-d][1,4]oxazepin-8-yl)-4-methylbenzamide] had an IC50 of 8 nM. The result for `C[C@@H]1COc2c(NC(=O)c3cc(-n4cnc(C5CC5)c4)c(N4CC[C@@H](O)C4)cn3)cccc2-c2nnnn21` [Example 77, 4-(4-cyclopropyl-1H-imidazol-1-yl)-5-((R)-3-hydroxypyrrolidin-1-yl)-N—((R)-5-methyl-5,6-dihydrobenzo[f]tetrazolo[1,5-d][1,4]oxazepin-8-yl)picolinamide] reads 4.7 nM. The result for `Cc1cc(F)c(C(=O)Nc2cccc3c2OCCn2cnc(Br)c2-3)cc1-n1cnc(C2CC2)c1` [Example 74, N-(1-bromo-5,6-dihydrobenzo[f]imidazo[1,5-d][1,4]oxazepin-8-yl)-5-(4-cyclopropyl-1H-imidazol-1-yl)-2-fluoro-4-methylbenzamide] reads 39.8 nM; that for `O=C(Nc1cccc2c1OC[C@H](CF)n1cnnc1-2)c1cc(-n2cnc(C3CC3)c2)ccn1` [Example 33, (R)-4-(4-cyclopropyl-1H-imidazol-1-yl)-N-(5-(fluoromethyl)-5,6-dihydrobenzo[f][1,2,4]triazolo[4,3-d][1,4]oxazepin-8-yl)picolinamide], 4.1 nM. The same measure for `O=C(Nc1cccc2c1OCCn1nnnc1-2)c1cc(-n2cnc(C3CC3)c2)c(N2C[C@@H]3C[C@H]2CO3)cn1` [Example 64, 5-((1S,4S)-2-oxa-5-azabicyclo[2.2.1]heptan-5-yl)-4-(4-cyclopropyl-1H-imidazol-1-yl)-N-(5,6-dihydrobenzo[f]tetrazolo[1,5-d][1,4]oxazepin-8-yl)picolinamide]: 3.9 nM. The molecule `Cc1cc(F)c(C(=O)Nc2cccc3c2OCC(C)(C)n2cnnc2-3)cc1-n1cnc(C2CC2)c1` [Example 9, 5-(4-cyclopropyl-1H-imidazol-1-yl)-N-(5,5-dimethyl-5,6-dihydrobenzo[f][1,2,4]triazolo[4,3-d][1,4]oxazepin-8-yl)-2-fluoro-4-methylbenzamide] yielded an IC50 of 5.6 nM. The same measure for `C[C@@H]1CN(c2cnc(C(=O)Nc3cccc4c3OC[C@@H](C)n3nnnc3-4)cc2-n2cnc(C3CC3)c2)CCO1` [Example 75, 4-(4-cyclopropyl-1H-imidazol-1-yl)-N—((R)-5-methyl-5,6-dihydrobenzo[f]tetrazolo[1,5-d][1,4]oxazepin-8-yl)-5-((R)-2-methylmorpholino)picolinamide]: 4 nM; for `Cc1cc(F)c(C(=O)Nc2cccc3c2OCC(C)(C)n2nnnc2-3)cc1-n1cnc(C2CC2)c1` [Example 13, 5-(4-cyclopropyl-1H-imidazol-1-yl)-N-(5,5-dimethyl-5,6-dihydrobenzo[f]tetrazolo[1,5-d][1,4]oxazepin-8-yl)-2-fluoro-4-methylbenzamide]: 5.2 nM; for `Cc1cc(F)c(C(=O)Nc2cccc3c2OC[C@H](C)n2nnnc2-3)cc1-n1cnc(C2CC2)c1` [Example 3, (S)-5-(4-cyclopropyl-1H-imidazol-1-yl)-2-fluoro-4-methyl-N-(5-methyl-5,6-dihydrobenzo[f]tetrazolo[1,5-d][1,4]oxazepin-8-yl)benzamide]: 5.7 nM. Regarding `C[C@@H]1COc2c(NC(=O)c3cc(-n4cnc(C5CC5)c4)ccn3)cccc2-c2nncn21` [Example 11, (R)-4-(4-cyclopropyl-1H-imidazol-1-yl)-N-(5-methyl-5,6-dihydrobenzo[f][1,2,4]triazolo[4,3-d][1,4]oxazepin-8-yl)picolinamide], the IC50 was determined as 5.4 nM.

As for `C[C@@H]1COc2c(NC(=O)c3cc(-n4cnc(C5CC5)c4)c(N4CCOCC4)cn3)cccc2-c2nncn21` [Example 39, (R)-4-(4-cyclopropyl-1H-imidazol-1-yl)-N-(5-methyl-5,6-dihydrobenzo[f][1,2,4]triazolo[4,3-d][1,4]oxazepin-8-yl)-5-morpholinopicolinamide], 5.5 nM corresponded to half-maximal inhibition (IC50).
